Measurements reported in ChEMBL document CHEMBL1821680, “Current status and research strategies in tuberculosis drug development” (2011).
Values after ≈ are worked out from the molar mass of the structure shown.

Test system: Mycobacterium tuberculosis
Experiment: Antituberculosis activity against Mycobacterium tuberculosis H37Rv
Format: functional

Compound | IC90 [µg/mL] | MIC [µg/mL]
Cc1c(Cl)cccc1NC(=O)OC(C)(OC1CCCCC1)C(=O)O (stereo not given) | < 0.1 | 
O=C(Nc1ccc(F)c(Cl)c1)C12CC3CC(CC(C3)C1)C2 | < 0.1 | 
Cc1cccc(Nc2nc(-c3ccccn3)cs2)n1 | < 0.1 | 
CC(C)(C)c1cc(Cl)c(O)c(NC(=S)NC(=O)c2ccc3ccccc3c2)c1 | < 0.1 | 
C[C@H]1COC2(CCN(c3nc(=O)c4cc(C(F)(F)F)cc([N+](=O)[O-])c4s3)CC2)O1 [BTZ-043] |  | 0.001 (≈ 0.00232 µM)
Cc1ccc(C(=O)Nc2ccc([N+](=O)[O-])cc2C)cc1I | < 0.1 | 
O=S1(=O)C=C(Sc2nc3ccccc3s2)c2ccccc21 | < 0.1 | 
FC(F)(F)c1ccccc1Nc1nc(-c2ccccn2)cs1 | < 0.1 | 
CSc1ncc(C(=O)Nc2cccc(C(F)(F)F)c2)cn1 | < 0.1 | 
Cc1cccnc1Nc1nc(-c2ccccn2)cs1 | < 0.1 | 
COC(=O)c1nc(N)sc1Cc1ccccc1 |  | 0.06 (≈ 0.242 µM)
C[C@@H]1COC2(CCN(c3nc(=O)c4cc(C(F)(F)F)cc([N+](=O)[O-])c4s3)CC2)O1 |  | 0.001 (≈ 0.00232 µM)
O=C(CC12CC3CC(CC(C3)C1)C2)Nc1ccc2ccccc2c1 | < 0.1 | 
COc1ccc(CCNC(=O)CCc2ncc(C(C)(C)C)s2)cc1 | < 0.1 | 
O=C(Nc1nc(-c2ccccc2)c(-c2ccccc2)o1)c1ccc(F)cc1 | < 0.1 | 
CC1(CNC(=O)Nc2ccc(C(F)(F)F)cc2)CC2CCC1C2 (stereo not given) | < 0.1 | 
Cc1cc([N+](=O)[O-])ccc1NC(=O)c1ccc(-c2ccccc2)cc1 | < 0.1 | 
Cc1sc(N)nc1C(=O)O |  | 0.06 (≈ 0.379 µM)
O=c1c2ccccc2nc(/C=C/c2ccc([N+](=O)[O-])o2)n1CCCO | < 0.1 | 
Cc1ccc2oc(-c3cc(NC(=O)Cc4ccccc4)ccc3Cl)nc2c1 | < 0.1 | 
CC(C)(C)c1ccc(C(=O)Nc2nc3ccccc3[nH]2)cc1 | < 0.1 | 
CSc1ncnc2c1ncn2CC(=O)Nc1ccc(C)c(C)c1 | < 0.1 | 
O=C(Nc1ccc(F)c(Cl)c1)c1ccc([N+](=O)[O-])o1 | < 0.1 | 
Clc1ccc(Nc2nc(-c3ccccn3)cs2)nc1 | < 0.1 | 
COC(=O)COc1ccc(NC(=O)COc2ccc(C)cc2C)cc1 | < 0.1 | 
